These results are taken from ChEMBL document CHEMBL1151886, “Synthesis and SAR of hydroxyethylamine based phenylcarboxyamides as inhibitors of BACE” (Bioorg Med Chem Lett, 2009).

In general, IC50 refers to the concentration needed to halve the response being measured.

For test [1], the target named is T1, Beta-secretase 1 (Homo sapiens, UniProt P56817). Kind of test: Binding affinity to BACE assessed as displacement of [3H]BMS-599240. The note with it: read-out: IC50. (In general: Displacement assays read how much labelled ligand stays bound in the presence of the test substance.)
In test [2] the target is T1, Beta-secretase 1. Description: Inhibition of BACE1 in human HEK293 cells overexpressing APP with Swedish mutation assessed as inhibition of amyloid beta 40 production. It counts as cell-based. The note with it: read-out: IC50.

Molecules are shown by their SMILES.

T1 sequence (P56817 whole entry): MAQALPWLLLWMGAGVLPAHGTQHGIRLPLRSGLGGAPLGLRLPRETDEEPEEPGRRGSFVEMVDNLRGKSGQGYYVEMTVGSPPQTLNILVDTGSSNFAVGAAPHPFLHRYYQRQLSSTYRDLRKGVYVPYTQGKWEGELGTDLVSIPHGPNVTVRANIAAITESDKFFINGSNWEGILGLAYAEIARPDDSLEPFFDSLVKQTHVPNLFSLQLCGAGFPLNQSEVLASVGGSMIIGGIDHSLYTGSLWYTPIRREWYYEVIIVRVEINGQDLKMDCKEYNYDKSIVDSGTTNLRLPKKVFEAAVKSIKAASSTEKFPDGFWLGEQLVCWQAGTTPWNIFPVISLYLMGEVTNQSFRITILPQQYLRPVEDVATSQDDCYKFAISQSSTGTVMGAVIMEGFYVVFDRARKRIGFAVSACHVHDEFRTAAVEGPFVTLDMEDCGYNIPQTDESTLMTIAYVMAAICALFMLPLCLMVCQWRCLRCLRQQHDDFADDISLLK

Regarding `CCCN(CCC)C(=O)c1cc(Oc2ccc(OC)cc2)cc(C(=O)N[C@@H](Cc2cc(F)cc(F)c2)[C@H](O)CNCc2cccc(OC)c2)c1`, the IC50 worked out at 10 nM on Beta-secretase 1 [1] and 412 nM on Beta-secretase 1 [2].

For the compound `CCCN(CCC)C(=O)c1cc(Oc2ccccc2)cc(C(=O)N[C@@H](Cc2cc(F)cc(F)c2)[C@H](O)CNCc2cccc(OC)c2)c1`, the IC50 on Beta-secretase 1 [1] is 10 nM; on Beta-secretase 1 [2], > 333 nM.

As for `CCCN(CCC)C(=O)c1cc(Sc2ccc(OC)cc2)cc(C(=O)N[C@@H](Cc2cc(F)cc(F)c2)[C@H](O)CNCc2cccc(OC)c2)c1`, the IC50 on Beta-secretase 1 [1] came to 27 nM; on Beta-secretase 1 [2], 30 nM.

For `CCCN(CCC)C(=O)c1cc(C(=O)N[C@@H](Cc2cc(F)cc(F)c2)[C@H](O)CNCc2cccc(OC)c2)cc(S(=O)(=O)c2ccccc2)c1`, the IC50 came to 11 nM on Beta-secretase 1 [1] and 148 nM at Beta-secretase 1 [2].

Consider `COc1cccc(CNC[C@@H](O)[C@H](Cc2cc(F)cc(F)c2)NC(=O)c2cc(/C(C)=N\OCc3ccccc3)cc(N(c3ccccc3)S(C)(=O)=O)c2)c1`, for which the IC50 was 12 nM on Beta-secretase 1 [1] and 88 nM on Beta-secretase 1 [2].

As for `CCCN(CCC)C(=O)c1cc(Sc2ccccc2)cc(C(=O)N[C@@H](Cc2cc(F)cc(F)c2)[C@H](O)CNCc2cccc(OC)c2)c1`, the IC50 at Beta-secretase 1 [1] was 13 nM; on Beta-secretase 1 [2], > 333 nM.

Turning to `CCCN(CCC)C(=O)c1cc(Oc2ccccc2OC)cc(C(=O)N[C@@H](Cc2cc(F)cc(F)c2)[C@H](O)CNCc2cccc(OC)c2)c1`, the results for the IC50 at Beta-secretase 1 [1] and on Beta-secretase 1 [2] were 54 nM and > 666 nM, respectively.

For the compound `C=CCO/N=C(/C)c1cc(C(=O)N[C@@H](Cc2cc(F)cc(F)c2)[C@H](O)CNCc2cccc(OC)c2)cc(N(c2ccccc2)S(C)(=O)=O)c1`, the IC50 came out at 27 nM on Beta-secretase 1 [1] and 162 nM on Beta-secretase 1 [2].

`CCCN(CCC)C(=O)c1cc(Oc2ccc(F)cc2)cc(C(=O)N[C@@H](Cc2cc(F)cc(F)c2)[C@H](O)CNCc2cccc(OC)c2)c1`: the IC50 at Beta-secretase 1 [1] stood at 22 nM; on Beta-secretase 1 [2] it was 94 nM.

Regarding `CCCN(CCC)C(=O)c1cc(C(=O)N[C@@H](Cc2cc(F)cc(F)c2)[C@H](O)CNCc2cccc(OC)c2)cc(S(=O)(=O)c2ccc(OC)cc2)c1`, the half-inhibitory concentration (IC50) on Beta-secretase 1 [1] came out at 12 nM; at Beta-secretase 1 [2], 392 nM.
